Source: patent US8415312B2, “Compound which is a nystatin derivative” (Biosergen AS, priority 2007, dated 2013)
≈ marks a conversion by molar mass, not a printed value. Where “and” joins values, the source holds several entries; their conditions need not be identical. Equal entries are not always repeated.

Assays:
[1] = tested on: Cryptococcus humicolus ATCC 9949; assay: Antifungal susceptibility study (1), broth microdilution MIC; assay type: cell-based; conditions: lowest concentration preventing any visible growth, read at 48 hours, 25° C., RPMI 1640 pH 7.0
Procedure, shortened: (§1)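 Broth microdilution in test medium at pH 7.0 with two-fold compound dilutions (DMSO stocks diluted 50-fold into medium), inoculated with freshly grown yeast cultures. Plates were incubated without agitation at 35° C. for C. albicans or 25° C. for C. humicolus. MIC was taken as the concentration with no visible growth, read at 48 hours.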

[2] = tested on: Candida albicans ATCC 14053; assay: as above; assay type: cell-based; conditions: lowest concentration preventing any visible growth, read at 48 hours, 35° C., RPMI 1640 pH 7.0
Procedure, shortened: as §1

[3] = tested on: yeasts and filamentous fungi (moulds); assay: Antifungal susceptibility study (1), overall comparison across the test organisms; assay type: cell-based; conditions: Table 5 MICs
Method: The organisms used for susceptibility testing were: Candida albicans ATCC 14053, Cryptococcus humicolus ATCC 9949, Aspergillus niger ATCC 16404 and Fusarium oxysporum VKM F-140 (=CMI, IMI 90473). Organisms were stored on potato dextrose agar […] 50% glycerol solution at -70° C. For short-term storage, stock cultures were stored on agar […] 4° C. The cultures of yeasts were sub-cultured onto Sabouraud dextrose (SAB) agar and incubated for 24 hours at 35° C. (Candida albicans) or for 48 hours at 25° C. (Cryptococcus humicolus) to obtain a freshly grown pure culture. The cultures of moulds were sub-cultured onto potato dextrose agar and incubated for 7 days at 35° C. […] (Fusarium oxysporum) to ensure maximum sporulation. Sterile 96-well flat-bottomed microtitration plates were used for testing. 100 μl of diluted inocula were dispensed into each microdilution well containing 100 μl of the double dilutions of compounds. Drug-free and yeast/mould-free controls were included. Microdilution trays were incubated at 35° C. (Candida albicans and moulds) or 25° C. (Cryptococcus humicolus) without agitation and observed for the presence or absence of visible growth. […] Minimal inhibitory concentrations (MICs) were read at 48 hours.

[4] = tested on: Fusarium oxysporum VKM F-140; assay: Antifungal susceptibility study (1), broth microdilution MIC; assay type: cell-based; conditions: lowest concentration preventing any visible growth, read at 48 hours, 35° C., RPMI 1640 pH 7.0
Procedure, shortened: (§2)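 Broth microdilution was run at pH 7.0 with compounds diluted from DMSO solutions and mixed 1:1 with conidial inoculum. Spore suspensions were adjusted to OD530 0.09-0.11 for A. niger or 0.15-0.17 for F. oxysporum, then diluted 1:50. Plates were incubated at 35° C without agitation, and MIC was read at 48 hours as absence of visible growth.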

[5] = tested on: Aspergillus niger ATCC 16404; assay: as above; assay type: cell-based; conditions: lowest concentration preventing any visible growth, read at 48 hours, 35° C., RPMI 1640 pH 7.0
Procedure, shortened: as §2

human blood erythrocytes = assay: In vitro toxicity study, haemolysis (Table 10); assay type: cell-based; conditions: for Haemolysis of human blood erythrocytes: individual blood samples # 1-3
erythrocytes = assay: In vitro toxicity study, haemolysis (Tables 11 and 12); assay type: cell-based, horse; conditions: for Haemolysis of erythrocytes, Mean ± S.E.M.: 25 μM (Table 12)
Method: The toxicity of various nystatin derivatives was tested at 2 and 5 μg/mL and at 25 μM.
Compounds were dissolved in DMSO at 5 mg/mL and 0.1 mL samples with different concentrations were prepared in DMSO. The samples were mixed with 0.9 mL PBS buffer containing 2.5% horse blood (PBS-HB; kept on ice) and incubated at 37° C. for 30 min without agitation.
Cells were pelleted by centrifugation at 5000 rpm for 5 min and haemolysis was evaluated by measuring OD545. 100% haemolysis was defined as the OD545 value obtained from a suspension of 2.5% horse blood in distilled water.

[6] = tested on: Candida albicans ATCC 10231; assay: Antifungal susceptibility study (2), MIC50 by OD490 growth; assay type: cell-based; conditions: 50% growth inhibition from regression curve, M19 medium without NaCl, 30° C.
Method: The anti-fungal activity of several of the nystatin derivatives was further investigated. […] The anti-fungal activity of a number of the nystatin derivatives was therefore determined in a method which is designed to be more sensitive.
The test organism used for the further testing of polyene macrolide bioactivity was Candida albicans ATCC 10231, grown in 120 μl of standard M19 medium without NaCl (with an inoculum of 1000 cfu per well) and 30 μl of diluted polyene macrolide samples. The antibiotics were diluted in MeOH in series ensuring a spectrum of concentrations which yielded results ranging from complete growth inhibition to no inhibition of the test organism. The test organism cultures with antibiotic dilutions were incubated in 96-well microtiter plates at 30° C. without shaking, and growth was measured as OD490 after 12, 14 and 16 hours on a SpectraMax Plus microtiter plate reader. OD was plotted against antibiotic concentration, and MIC50 was estimated from the regression curve at 50% growth inhibition.

[7] = tested on: mice (C57B1/6xDBA/2)F1 B6D2F1; conditions: single injection into tail vein, probit analysis
Method: (§3) Male mice of hybrids of first generation (C57B1/6xDBA/2)F1 B6D2F1, weight 20-22 g., received from the Central farm. “Kryukovo” of Russian Academies of Medical Science (RAMS) were used. Animals were maintained in a vivarium in plastic cages (with hardwood bedding in environmentally controlled conditions: 24±1° C., 12/12 hours light/dark cycle) on a standard diet of bricketed forages with easy access to drinking water (ad libitum). After a 2-week quarantine period, healthy animals were used in experimental work.
(§4) The solutions were prepared as follows: dry antibiotic substances (5 mg) were mixed with dry sodium deoxycholate (4.1 mg) in a sterile glass vial. 10 mL of phosphate buffer (NaH2PO4—1.59 g; Na2HPO4—0.96 g; H2O—to 100 mL) was added to the mix and the suspension was immediately subjected to vigorous shaking for 10 minutes until homogeneous suspensions were formed.
Preparations of amphotericin B and S44HP were also prepared in the same way.
The antibiotic preparations were singly injected into the mice's tail vein within 1-1.5 hours after the preparation of solutions. […] Each antibiotic was used in a range of doses resulting in 0% to 100% lethality and a minimum of 3 intermediate doses. Animals were randomized into groups, each containing 6 mice.

[8] = tested on: Candida albicans (strain 14053 ATCC); assay: In vivo antifungal activity, kidney burden in infected mice; conditions: colonies per 1 g of kidney tissue, day 5, individual mice
Method: as §3, §4
Animals were infected intravenously with Candida albicans culture at a dose of 1.0 million CFU/mouse (volume 0.1 mL). 30 minutes after infection, the antifungal agents were introduced intravenously into the mice at various doses in a volume of 0.2 mL (at a rate of 0.2 mL/30 second). Each dose was administered daily for four days including the day of infection (0, 1, 2 and 3 days).
As a control, there was a group of untreated mice (infected in the same way with Candida albicans). Also there was a “placebo” group of non-infected animals which were intravenously administered (in the same volume as antifungal agent preparations) 0.2 mL of solvent (phosphatic buffer +5% glucose (1:1)).
On the 5th day of experiment, mice were weighed and euthanized (killed) by a cervical dislocation. Then, in sterile conditions, the Candida albicans burden of each mouse was determined by counting of viable homogenates from the kidneys. The kidneys were removed aseptically and weighed, then pounded in porcelain mortars with sterile corundum. Dilutions of the resulting suspensions were prepared and sowed on Petri dishes with agar Saburo, incubated for 24 hours at a temperature of 35° C. Developed colonies of Candida albicans were then counted and their quantity calculated on the basis of 1 g of kidney tissue.

[9] = 25 μM, individual blood samples (Table 12)

Compound | MIC Cryptococcus humicolus ATCC 9949 [1] [µg/mL] | MIC Candida albicans ATCC 14053 [2] [µg/mL] | anti-fungal activity compared with Amphotericin B and S44HP [3] | MIC Fusarium oxysporum VKM F-140 [4] [µg/mL] | MIC Aspergillus niger ATCC 16404 [5] [µg/mL] | Haemolysis of human blood erythrocytes, MEAN ± SE (human blood erythrocytes; 2 μg/mL) [%] | Haemolysis of human blood erythrocytes (human blood erythrocytes; 2 μg/mL) | Haemolysis of human blood erythrocytes, MEAN ± SE (human blood erythrocytes; 5 μg/mL) [%] | Haemolysis of human blood erythrocytes (human blood erythrocytes; 5 μg/mL) | Haemolysis of erythrocytes, Mean ± S.E.M. (erythrocytes) [%] | Haemolysis of erythrocytes (erythrocytes; [9]) | MIC50 [6] [µg/mL] | Haemolysis of erythrocytes, Mean ± SE (erythrocytes; 5 μg/mL (Table 11)) [%] | Haemolysis of erythrocytes (erythrocytes; 5 μg/mL, individual blood samples # 1-3 (Table 11)) | LD50 [7] [mg/kg] | MTD [7] [mg/kg] | Number of Colonies ([8]; 0.08 mg/kg × 4/24 i.v.) | Number of Colonies ([8]; 0.15 mg/kg × 4/24 i.v.) | Number of Colonies ([8]; 0.3 mg/kg × 4/24 i.v.) | Number of Colonies ([8]; 0.6 mg/kg × 4/24 i.v.)
COC(=O)C(CO)NC(=O)C1C(O)CC2(O)CC(O)C(O)CCC(O)CC(O)CC(O)CC(=O)OC(C)C(C)C(O)C(C)C=CC=CC=CC=CC=CC=CC=CC(OC3OC(C)C(O)C(N)C3O)CC1O2 (mixture of isomers) [Compound 14] | 1 | 1 | comparable anti-fungal activity to Amphotericin B and S44HP | 4 | 2 | 2.5 ± 0.07 | 2.7% and 2.5% (2×) | 4.9 ± 0.2 | 4.8% and 4.5% and 5.3% |  |  |  |  |  |  |  |  |  |  | 
CC1C=CC=CC=CC=CC=CC=CC=CC(OC2OC(C)C(O)C(N)C2O)CC2OC(O)(CC(O)C(O)CCC(O)CC(O)CC(O)CC(=O)OC(C)C(C)C1O)CC(O)C2C(=O)NC1C(O)OC(CO)C(O)C1O (stereo not shown) [Compound 16] | 1 (≈ 0.921 µM) | 1 (≈ 0.921 µM) |  | 8 (≈ 7.37 µM) | 2 (≈ 1.84 µM) | 2.4 ± 0.12 | 2.3% and 2.2% and 2.6% | 3.1 ± 0.14 | 3.1% and 2.9% and 3.4% |  |  |  |  |  |  |  |  |  |  | 
CCOC(=O)CNC(=O)C1C(O)CC2(O)CC(O)C(O)CCC(O)CC(O)CC(O)CC(=O)OC(C)C(C)C(O)C(C)C=CC=CC=CC=CC=CC=CC=CC(OC3OC(C)C(O)C(N)C3O)CC1O2 (stereo not shown) [Compound 9] | 1 (≈ 0.991 µM) | 1 (≈ 0.991 µM) | comparable anti-fungal activity to Amphotericin B and S44HP | 4 (≈ 3.96 µM) | 2 (≈ 1.98 µM) |  |  |  |  | 18.4 ± 1.9 | 18.0% and 16.7% and 22.4% and 25% and 16.2% and 12.2% | 0.13 (≈ 0.129 µM) |  |  |  |  |  |  |  | 
CC1C=CC=CC=CC=CC=CC=CC=CC(OC2OC(C)C(O)C(N(CCCN)CCCN)C2O)CC2OC(O)(CC(O)C(O)CCC(O)CC(O)CC(O)CC(=O)OC(C)C(C)C1O)CC(O)C2C(=O)O (stereo not shown) [Compound 22] | 1 (≈ 0.963 µM) | 1 (≈ 0.963 µM) | comparable anti-fungal activity to Amphotericin B and S44HP | 1 (≈ 0.963 µM) | 1 (≈ 0.963 µM) |  |  |  |  |  |  | 0.07 (≈ 0.0674 µM) |  |  |  |  |  |  |  | 
COC(=O)C(CO)NC(=O)C1C(O)CC2(O)CC(O)C(O)CCC(O)CC(O)CC(O)CC(=O)OC(C)C(C)C(O)C(C)C=CC=CC=CC=CC=CC=CC=CC(OC3OC(C)C(O)C(N)C3O)CC1O2 (stereo not shown) [Compound 13] | 1 (≈ 0.975 µM) | 1 (≈ 0.975 µM) | comparable anti-fungal activity to Amphotericin B and S44HP | 4 (≈ 3.9 µM) | 1 (≈ 0.975 µM) | 3.7 ± 0.6 | 3.3% and 3.0% and 4.9% | 14.5 ± 0.5 | 15.5% and 14% and 14.2% |  |  |  |  |  |  |  |  |  |  | 
CC1C=CC=CC=CC=CC=CC=CC=CC(OC2OC(C)C(O)C(N)C2O)CC2OC(O)(CC(O)C(O)CCC(O)CC(O)CC(O)CC(=O)OC(C)C(C)C1O)CC(O)C2C(=O)N1CCN(CCO)CC1 (stereo not shown) [Compound 15] | 2 (≈ 1.93 µM) | 1 (≈ 0.965 µM) |  | 4 (≈ 3.86 µM) | 2 (≈ 1.93 µM) |  |  |  |  |  |  | 0.20 (≈ 0.193 µM) | 2.6 ± 0.1 | 2.8% and 2.4% and 2.7% |  |  |  |  |  | 
C[C@@H]1[C@H](O)[C@@H](C)/C=C/C=C/C=C/C=C/C=C/C=C/C=C/[C@H](O[C@@H]2O[C@H](C)[C@@H](O)[C@H](N)[C@@H]2O)C[C@@H]2O[C@](O)(C[C@@H](O)[C@H](O)CC[C@@H](O)C[C@@H](O)C[C@@H](O)CC(=O)O[C@H]1C)C[C@H](O)[C@H]2C(=O)O [Compound S44HP, reference compound] | 1 (≈ 1.08 µM) | 1 (≈ 1.08 µM) |  | 4 (≈ 4.33 µM) | 1 (≈ 1.08 µM) |  |  |  |  |  |  | 0.12 (≈ 0.13 µM) |  |  | 2.05 | 0.64 | 2.7 × 10^4 and 8.0 × 10^4 and 8.2 × 10^4 | 8.0 × 10^3 and 6.4 × 10^3 and 1.6 × 10^4 | 2.7 × 10^3 and 9.4 × 10^3 and 1.3 × 10^4 | 2.5 × 10^3 and 8.8 × 10^3 and 1.2 × 10^3
CC1C=CC=CC=CC=CC=CC=CC=CC(OC2OC(C)C(O)C(NCC3(O)OCC(O)C(O)C3O)C2O)CC2OC(O)(CC(O)C(O)CCC(O)CC(O)CC(O)CC(=O)OC(C)C(C)C1O)CC(O)C2C(=O)O (single isomer, unassigned) [Compound 18] | 1 (≈ 0.921 µM) | 1 (≈ 0.921 µM) |  | 8 (≈ 7.36 µM) | 2 (≈ 1.84 µM) |  |  |  |  | 3.9 ± 1.3 | 3.0% and 3.2% and 9.7% and 1.0% and 1.5% and 5.3% |  |  |  |  |  |  |  |  | 
